Results published in US20070128217A1 (priority 2003, published 2007).

What was measured:
[1] = system: antibodies in sera from SARS patients (sera 1a, 1b, 2, 6, 37, 62, London, SARS-yellow, SARS-green); assay type: binding, human; set-up: Binding of serum 6 to linear peptides of protein X1 of SARS-CoV Urbani / Binding of serum 37 to linear peptides of protein X1 of SARS-CoV Urbani / Binding of serum 6 to looped/cyclic peptide (PEPSCAN-ELISA) / Binding of serum 37 to looped/cyclic peptide (PEPSCAN-ELISA) / Binding of serum 37 to looped/cyclic peptides of protein X1 of SARS-CoV Urbani / Binding of serum 6 to linear peptides of protein X2 / Binding of serum 37 to linear peptides of protein X2 / Binding of serum 37 to looped/cyclic peptides of protein X2 of SARS-CoV Urbani / Binding of serum 6 to linear peptides of protein M of SARS-CoV Urbani / Binding of serum 37 to linear peptides of protein M of SARS-CoV Urbani / Binding of serum 6 to looped/cyclic peptides of protein M of SARS-CoV Urbani / Binding of serum 37 to looped/cyclic peptides of protein M of SARS-CoV Urbani / Binding of serum 6 to linear peptides of protein X3 of SARS-CoV Urbani / Binding of serum 37 to linear peptides of protein X3 of SARS-CoV Urbani / Binding of serum 37 to looped/cyclic peptides of protein X3 of SARS-CoV Urbani / Binding of serum 6 to linear peptides of protein X4 of SARS-CoV Urbani / Binding of serum 37 to linear peptides of protein X4 of SARS-CoV Urbani / Binding of serum 37 to looped/cyclic peptides of protein X4 of SARS-CoV Urbani / Binding of serum 6 to linear peptides of protein X5 of SARS-CoV Urbani / Binding of serum 37 to linear peptides of protein X5 of SARS-CoV Urbani / Binding of serum 37 to looped/cyclic peptides of protein X5 of SARS-CoV Urbani / Binding of serum 6 to linear peptides of protein N of SARS-CoV Urbani / Binding of serum 37 to linear peptides of protein N of SARS-CoV Urbani / Binding of serum 6 to linear peptide (PEPSCAN-ELISA) / Binding of serum 1a to looped/cyclic peptides of protein N of SARS-CoV Urbani / Binding of serum 1b to looped/cyclic peptides of protein N of SARS-CoV Urbani / Binding of serum 2 to looped/cyclic peptides of protein N of SARS-CoV Urbani / Binding of serum 6 to looped/cyclic peptides of protein N of SARS-CoV Urbani / Binding of serum 37 to looped/cyclic peptides of protein N of SARS-CoV Urbani / Binding of serum 62 to looped/cyclic peptides of protein N of SARS-CoV Urbani / Binding of serum London to looped/cyclic peptides of protein N of SARS-CoV Urbani / Binding of serum SARS-green to looped/cyclic peptides of protein N of SARS-CoV Urbani: unit not given here
[2] = system: control sera (pooled serum of ten healthy LUMC hospital workers; commercial negative donor pooled serum from the Dutch bloodbank); assay type: binding, human; set-up: Binding of Control serum LUMC to linear peptides / Binding of Control serum Blood-bank to linear peptides / Binding of Control serum LUMC to looped peptides / Binding of Control Serum Blood-Bank to Looped peptides / Binding of Control serum LUMC to linear peptides of the protein M of SARS-CoV Urbani / Binding of Control serum Blood-bank to linear peptides of the protein M of SARS-CoV Urbani / Binding of Control serum LUMC to looped peptides of the protein M of SARS-CoV Urbani / Binding of Control Serum Blood-Bank to Looped peptides of the protein M of SARS-CoV Urbani: unit not given here
[3] = system: rabbit serum obtained by immunizing a rabbit with the SARS-CoV strain Frankfurt 1; assay type: binding; set-up: Binding of a rabbit serum to linear peptides / Binding of a rabbit serum to looped peptides / Rabbit serum linear peptides / Rabbit serum looped peptides / Binding of a rabbit serum to linear peptides of protein N of SARS-CoV Urbani (Rabbit serum linear peptides) / Binding of a rabbit serum to looped/cyclic peptides of protein N of SARS-CoV Urbani (Rabbit serum looped peptides): unit not given here

## NATFFIFNKLVKDPP
[1]
  Binding of serum 1a to linear peptides of protein X1 of SARS-CoV Urbani: 0.6
  Binding of serum 1a to looped/cyclic peptides of protein X1 of SARS-CoV Urbani: 0.5
  Binding of serum 1b to linear peptides of protein X1 of SARS-CoV Urbani: 0.5
  Binding of serum 1b to looped/cyclic peptides of protein X1 of SARS-CoV Urbani: 0.3
  Binding of serum 2 to linear peptides of protein X1 of SARS-CoV Urbani: 0.4
  Binding of serum 2 to looped/cyclic peptides of protein X1 of SARS-CoV Urbani: 0.3
  Binding of serum 6 to linear peptides of protein X1 of SARS-CoV Urbani: 0.4
  Binding of serum 6 to looped/cyclic peptides of protein X1 of SARS-CoV Urbani: 0.4
  Binding of serum 37 to linear peptides of protein X1 of SARS-CoV Urbani: 0.5
  Binding of serum 37 to looped/cyclic peptides of protein X1 of SARS-CoV Urbani: 0.4
  Binding of serum 62 to linear peptides of protein X1 of SARS-CoV Urbani: 0.4
  Binding of serum 62 to looped/cyclic peptides of protein X1 of SARS-CoV Urbani: 0.4
  Binding of serum London to linear peptides of protein X1 of SARS-CoV Urbani: 0.2
  Binding of serum London to looped/cyclic peptides of protein X1 of SARS-CoV Urbani: 0.2
  Binding of serum SARS-green to linear peptides of protein X1 of SARS-CoV Urbani: 0.2
  Binding of serum SARS-green to looped/cyclic peptides of protein X1 of SARS-CoV Urbani: 0.2
  Binding of serum SARS-yellow to linear peptides of protein X1 of SARS-CoV Urbani: 0.2
  Binding of serum SARS-yellow to looped/cyclic peptides of protein X1 of SARS-CoV Urbani: 0.0
[2]
  Binding of Control Serum Blood-Bank to Looped peptides: 0.3
  Binding of Control serum Blood-bank to linear peptides: 0.4
  Binding of Control serum LUMC to linear peptides: 0.4
  Binding of Control serum LUMC to looped peptides: 0.4
[3]
  Binding of a rabbit serum to linear peptides: 0.1
  Binding of a rabbit serum to looped peptides: 0.3

## RYRIGNYKLNTDHAG
[1]
  Binding of serum 1a to linear peptides of protein M of SARS-CoV Urbani: 0.7
  Binding of serum 1a to looped/cyclic peptides of protein M of SARS-CoV Urbani: 0.7
  Binding of serum 1b to linear peptides of protein M of SARS-CoV Urbani: 0.5
  Binding of serum 1b to looped/cyclic peptides of protein M of SARS-CoV Urbani: 0.6
  Binding of serum 2 to linear peptides of protein M of SARS-CoV Urbani: 0.4
  Binding of serum 2 to looped/cyclic peptides of protein M of SARS-CoV Urbani: 0.6
  Binding of serum 6 to linear peptides of protein M of SARS-CoV Urbani: 0.2
  Binding of serum 6 to looped/cyclic peptides of protein M of SARS-CoV Urbani: 0.9
  Binding of serum 37 to linear peptides of protein M of SARS-CoV Urbani: 0.6
  Binding of serum 37 to looped/cyclic peptides of protein M of SARS-CoV Urbani: 0.6
  Binding of serum 62 to linear peptides of protein M of SARS-CoV Urbani: 0.5
  Binding of serum 62 to looped/cyclic peptides of protein M of SARS-CoV Urbani: 0.6
  Binding of serum London to linear peptides of protein M of SARS-CoV Urbani: 0.5
  Binding of serum London to looped/cyclic peptides of protein M of SARS-CoV Urbani: 0.4
  Binding of serum SARS-green to linear peptides of protein M of SARS-CoV Urbani: 0.4
  Binding of serum SARS-green to looped/cyclic peptides of protein M of SARS-CoV Urbani: 0.3
  Binding of serum SARS-yellow to linear peptides of protein M of SARS-CoV Urbani: 0.2
  Binding of serum SARS-yellow to looped/cyclic peptides of protein M of SARS-CoV Urbani: 0.8
[2]
  Binding of Control Serum Blood-Bank to Looped peptides of the protein M of SARS-CoV Urbani: 0.7
  Binding of Control serum Blood-bank to linear peptides of the protein M of SARS-CoV Urbani: 0.7
  Binding of Control serum LUMC to linear peptides of the protein M of SARS-CoV Urbani: 0.5
  Binding of Control serum LUMC to looped peptides of the protein M of SARS-CoV Urbani: 0.7
[3]
  Rabbit serum linear peptides: 0.1
  Rabbit serum looped peptides: 0.2

## LVAAGMEAQFLYLYA
[1]
  Binding of serum 1a to linear peptides of protein X1 of SARS-CoV Urbani: 0.8
  Binding of serum 1a to looped/cyclic peptide (PEPSCAN-ELISA): 0.5
  Binding of serum 1b to linear peptides of protein X1 of SARS-CoV Urbani: 0.7
  Binding of serum 1b to looped/cyclic peptide (PEPSCAN-ELISA): 0.4
  Binding of serum 2 to linear peptides of protein X1 of SARS-CoV Urbani: 0.6
  Binding of serum 2 to looped/cyclic peptide (PEPSCAN-ELISA): 0.5
  Binding of serum 6 to linear peptides of protein X1 of SARS-CoV Urbani: 0.4
  Binding of serum 6 to looped/cyclic peptide (PEPSCAN-ELISA): 0.3
  Binding of serum 37 to linear peptides of protein X1 of SARS-CoV Urbani: 0.6
  Binding of serum 37 to looped/cyclic peptide (PEPSCAN-ELISA): 0.5
  Binding of serum 62 to linear peptides of protein X1 of SARS-CoV Urbani: 0.5
  Binding of serum 62 to looped/cyclic peptide (PEPSCAN-ELISA): 0.5
  Binding of serum London to linear peptides of protein X1 of SARS-CoV Urbani: 0.2
  Binding of serum London to looped/cyclic peptide (PEPSCAN-ELISA): 0.2
  Binding of serum SARS-green to linear peptides of protein X1 of SARS-CoV Urbani: 0.2
  Binding of serum SARS-green to looped/cyclic peptide (PEPSCAN-ELISA): 0.3
  Binding of serum SARS-yellow to linear peptides of protein X1 of SARS-CoV Urbani: 0.3
  Binding of serum SARS-yellow to looped/cyclic peptide (PEPSCAN-ELISA): 0.6
[2]
  Binding of Control Serum Blood-Bank to Looped peptides: 0.5
  Binding of Control serum Blood-bank to linear peptides: 0.4
  Binding of Control serum LUMC to linear peptides: 1.1
  Binding of Control serum LUMC to looped peptides: 0.6
[3]
  Binding of a rabbit serum to linear peptides: 0.1
  Binding of a rabbit serum to looped peptides: 0.6
